Values after ≈ are worked out from the molar mass of the structure shown.
Tested on: SA 9218
Test: MIC by standard agar dilution method
Format: cell-based
Conditions: Mueller Hinton agar, 10^4 to 10^5 cells per spot, incubated overnight at 35° C., lowest concentration that inhibits visible growth
Method in brief: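 Agar dilution: two-fold compound dilutions mixed into molten Mueller Hinton agar, spots of ~10^4–10^5 cells from 0.5 McFarland suspension diluted 1:20 in TSB. Incubated overnight at 35 °C; MIC is lowest concentration inhibiting visible growth.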

SMILES | MIC | SA 9218 MIC
O=C(Nc1ccc(Br)cc1C(=O)O)c1cccc(S(=O)(=O)NCCCn2ccnc2)c1 | 64 µg/mL (≈ 126 µM) | –
O=C(Nc1ccc(Br)cc1C(=O)O)c1ccc(Br)c(S(=O)(=O)NC2Cc3ccccc3C2)c1 | 64 µg/mL (≈ 108 µM) | –
CCSc1ccc(C(=O)Nc2ccc(Br)cc2C(=O)O)cc1 | 0.5 µg/mL (≈ 1.31 µM) | –
CCCCOc1ccc(C(=O)Nc2ccc(Br)cc2C(=O)O)cc1 | 8 µg/mL (≈ 20.4 µM) | –
O=C(Nc1ccc(Br)cc1C(=O)O)c1ccc(C(F)(F)F)cc1 | 32 µg/mL (≈ 82.4 µM) | –
CSc1ccc(C(=O)Nc2ccc(Br)cc2C(=O)O)cc1 | 2 µg/mL (≈ 5.46 µM) | –
C=Cc1ccc(C(=O)Nc2ccc(Br)cc2C(=O)O)cc1 | > 128 µg/mL | –
COC(=O)c1ccc(C(=O)Nc2ccc(Br)cc2C(=O)O)cc1 | 32 µg/mL (≈ 84.6 µM) | –
O=C(O)c1cc(Br)ccc1NC(=O)c1ccc(F)c2ccccc12 | 32 µg/mL (≈ 82.4 µM) | –
COc1cc(C(=O)Nc2ccc(Br)cc2C(=O)O)ccc1C | > 128 µg/mL | –
O=C(Nc1ccc(Br)cc1C(=O)O)c1ccc2c(c1)OCO2 | 16 µg/mL (≈ 43.9 µM) | –
O=C(O)c1cc(Br)ccc1NC(=O)c1cccc2ccccc12 | 32 µg/mL (≈ 86.4 µM) | –
O=C(Nc1ccc(Br)cc1C(=O)O)c1cccc([N+](=O)[O-])c1 | 128 µg/mL (≈ 351 µM) | –
O=C(Nc1ccc(Br)cc1C(=O)O)c1ccc2ccccc2c1 | 2 µg/mL (≈ 5.4 µM) | –
CS(=O)(=O)c1ccc(C(=O)Nc2ccc(Br)cc2C(=O)O)cc1 | 64 µg/mL (≈ 161 µM) | –
O=Cc1ccc(C(=O)Nc2ccc(Br)cc2C(=O)O)cc1 | > 128 µg/mL | –
COC(=O)c1cc(C(=O)Nc2ccc(Br)cc2C(=O)O)cc([N+](=O)[O-])c1 | 64 µg/mL (≈ 151 µM) | –
COc1cc(C(=O)Nc2ccc(Br)cc2C(=O)O)ccc1[N+](=O)[O-] | 32 µg/mL (≈ 81 µM) | –
O=C(Nc1ccc(Br)cc1C(=O)O)c1ccc(F)c(F)c1 | 32 µg/mL (≈ 89.9 µM) | –
CSc1ccc(Cl)c(C(=O)Nc2ccc(Br)cc2C(=O)O)c1 | > 128 µg/mL | –

SMILES | MIC | SA 9218 MIC
COc1cc(C(=O)Nc2ccc(Br)cc2C(=O)O)c([N+](=O)[O-])cc1OC | > 128 µg/mL | –
O=C(O)c1cc(Br)ccc1NC(=O)c1cccc2c1C(=O)c1ccccc1-2 | > 128 µg/mL | –
COc1cc(Br)c(C(=O)Nc2ccc(Br)cc2C(=O)O)cc1OC | > 128 µg/mL | –
CCCOc1ccc(C(=O)Nc2ccc(Br)cc2C(=O)O)cc1 | 64 µg/mL (≈ 169 µM) | –
O=Cc1cccc(C(=O)Nc2ccc(Br)cc2C(=O)O)c1 | > 128 µg/mL | –
CC(=O)Oc1cccc(C(=O)Nc2ccc(Br)cc2C(=O)O)c1 | 128 µg/mL (≈ 338 µM) | –
COc1ccc(C(=O)Nc2ccc(Br)cc2C(=O)O)cc1F | 16 µg/mL (≈ 43.5 µM) | –
COc1ccc(Br)c(C(=O)Nc2ccc(Br)cc2C(=O)O)c1 | 128 µg/mL (≈ 298 µM) | –
O=C(Nc1ccc(Br)cc1C(=O)O)c1ccc2c(c1)S(=O)(=O)c1ccccc1C2=O | 16 µg/mL (≈ 32.9 µM) | –
Cc1ccc(F)cc1C(=O)Nc1ccc(Br)cc1C(=O)O | 64 µg/mL (≈ 182 µM) | –
COc1ccc([N+](=O)[O-])c(C(=O)Nc2ccc(Br)cc2C(=O)O)c1 | > 128 µg/mL | –
O=C(Nc1ccc(Br)cc1C(=O)O)c1cc(C(F)(F)F)ccc1Cl | > 128 µg/mL | –
N#Cc1ccc(NC(=O)c2cccc(O)c2)c(C(=O)O)c1 | 32 µg/mL (≈ 113 µM) | –
CCN(CC)C(=O)c1c(F)ccc(F)c1C(=O)Nc1ccc(Br)cc1C(=O)O | > 128 µg/mL | –
O=C(Nc1ccc(Br)cc1C(=O)O)c1cc(S(=O)(=O)Nc2ccc3c(c2)OCCO3)c(F)cc1Cl | 128 µg/mL (≈ 219 µM) | –
O=C(Nc1ccc(Br)cc1C(=O)O)c1ccc(OC(F)F)cc1 | 64 µg/mL (≈ 166 µM) | –
O=C(Nc1ccc(Br)cc1C(=O)O)c1cc(S(=O)(=O)Nc2ccc(Cl)cc2)ccc1Br | 4 µg/mL (≈ 6.8 µM) | –
O=C(Nc1ccc(-c2ccccc2)cc1C(=O)O)c1ccc(S(=O)(=O)N2CCc3ccccc32)cc1 [L-217792] | 8 µg/mL (≈ 16 µM) | –
Cl.O=C(Nc1ccc(Br)cc1C(=O)O)c1cccc(SCc2ccncc2)c1 [PHA-502339A] | 8 µg/mL | –

Now from value to compound:

MIC | SA 9218 MIC | SMILES
16 µg/mL (≈ 31.2 µM) | – | CN(c1ccc(Cl)cc1)S(=O)(=O)c1cccc(C(=O)Nc2ccc(C(F)(F)F)cc2C(=O)O)c1 [PHA-500334]
1 µg/mL (≈ 2.26 µM) | – | O=C(Nc1ccc(Br)cc1C(=O)O)c1cccc(CSc2ccccc2)c1 [PHA-501684]
– | 2 µg/mL | O=C(Nc1ccc(Br)cc1C(=O)O)c1cccc(OCc2ccccc2)c1 [PHA-501685]
2 µg/mL (≈ 5.26 µM) | – | CCSc1cccc(C(=O)Nc2ccc(Br)cc2C(=O)O)c1 [PHA-501748]
2 µg/mL (≈ 4.51 µM) | – | O=C(Nc1ccc(Br)cc1C(=O)O)c1cccc(SCc2ccncc2)c1 [PHA-502339]
4 µg/mL (≈ 11.4 µM) | – | COc1cccc(C(=O)Nc2ccc(Br)cc2C(=O)O)c1 [PHA-504639]
0.5 µg/mL (≈ 0.896 µM) | – | CN(c1ccc(Cl)cc1)S(=O)(=O)c1cc(Br)cc(C(=O)Nc2ccc(Cl)cc2C(=O)O)c1 [PHA-509059]
2 µg/mL (≈ 4.85 µM) | – | O=C(Nc1ccc(Br)cc1C(=O)O)c1cccc(Oc2ccccc2)c1 [PHA-513535]
64 µg/mL (≈ 161 µM) | – | CS(=O)(=O)c1cccc(C(=O)Nc2ccc(Br)cc2C(=O)O)c1 [PHA-513541]
2 µg/mL (≈ 4.71 µM) | – | O=C(Nc1ccc(Br)cc1C(=O)O)c1cccc(C(=O)c2ccccc2)c1 [PHA-515448]
8 µg/mL (≈ 14.1 µM) | – | CN(c1ccc(Cl)cc1)S(=O)(=O)c1cc(C(=O)Nc2ccc(Br)cc2C(=O)O)cc([N+](=O)[O-])c1 [PHA-515583]
1 µg/mL (≈ 1.52 µM) | – | O=C(Nc1ccc(Br)cc1C(=O)O)c1cc(Br)cc(S(=O)(=O)N2CCc3cc(Br)ccc32)c1 [PHA-515585]
8 µg/mL (≈ 16.3 µM) | – | CN(c1ccccn1)S(=O)(=O)c1ccc(C(=O)Nc2ccc(Br)cc2C(=O)O)cc1 [PHA-516112]
2 µg/mL (≈ 3.97 µM) | – | CN(c1ccccc1N)S(=O)(=O)c1ccc(C(=O)Nc2ccc(Br)cc2C(=O)O)cc1 [PHA-516113]
0.5 µg/mL (≈ 1 µM) | – | O=C(Nc1ccc(Br)cc1C(=O)O)c1cccc(S(=O)(=O)n2ccc3ccccc32)c1 [PHA-516116]
– | 2 µg/mL | O=C(Nc1ccc(Cl)cc1C(=O)O)c1cccc(C(=O)c2ccccc2)c1 [PHA-518226]
0.5 µg/mL (≈ 1.28 µM) | – | O=C(Nc1ccc([N+](=O)[O-])cc1C(=O)O)c1cccc(C(=O)c2ccccc2)c1 [PHA-519402]
16 µg/mL (≈ 44.2 µM) | – | CC(=O)c1ccc(C(=O)Nc2ccc(Br)cc2C(=O)O)cc1 [PHA-520446]
1 µg/mL (≈ 2.36 µM) | – | O=C(Nc1ccc(Br)cc1C(=O)O)c1ccc(C(=O)c2ccccc2)cc1 [PHA-520447]
1 µg/mL (≈ 1.99 µM) | – | O=C(Nc1ccc(Br)cc1C(=O)O)c1cccc(S(=O)(=O)N2CCc3ccccc32)c1 [PHA-520938]
– | 1 µg/mL | O=C(Nc1ccc(Br)cc1C(=O)O)c1cccc(C(O)c2ccccc2)c1 (centres unmarked) [PHA-521534]
– | >128 µg/mL | N#Cc1ccc(NC(=O)c2ccccc2)c(C(=O)O)c1 [PHA-521535]
32 µg/mL (≈ 88.4 µM) | – | CC(=O)c1cccc(C(=O)Nc2ccc(Br)cc2C(=O)O)c1 [PHA-522145]
0.5 µg/mL (≈ 1.1 µM) | – | CON=C(c1ccccc1)c1cccc(C(=O)Nc2ccc(Br)cc2C(=O)O)c1 [PHA-522146, 5-Bromo-2-({3-[(methoxyimino)(phenyl)methyl]benzoyl}amino)benzoic acid]
0.125 µg/mL (≈ 0.259 µM) | – | N#Cc1ccc(NC(=O)c2cccc(S(=O)(=O)N3CCc4cc(Cl)ccc43)c2)c(C(=O)O)c1 [PHA-524523, 2-({3-[(5-Chloro-2,3-dihydro-1H-indol-1-yl)sulfonyl]benzoyl}amino)-5-cyanobenzoic acid]

MIC | SA 9218 MIC | SMILES
1 µg/mL (≈ 2.7 µM) | – | N#Cc1ccc(NC(=O)c2cccc(C(=O)c3ccccc3)c2)c(C(=O)O)c1 [PHA-524524]
– | 0.25 µg/mL | O=C(Nc1ccc(Br)cc1C(=O)O)c1cccc(C(=NO)c2ccccc2)c1 [PHA-524545]
2 µg/mL (≈ 4.76 µM) | – | O=C(Nc1ccc(Br)cc1C(=O)O)c1cccc(C#Cc2ccccc2)c1 [PHA-526578]
1 µg/mL (≈ 2.33 µM) | – | O=C(Nc1ccc(Br)cc1C(=O)O)c1cccc(Sc2ccccc2)c1 [PHA-526580]
– | 32 µg/mL | N#Cc1ccc(NC(=O)c2ccccc2)c(C(=O)O)c1 [PHA-530685]
8 µg/mL (≈ 15.2 µM) | – | N#Cc1cc(C(=O)Nc2ccc(Br)cc2C(=O)O)cc(S(=O)(=O)N2CCc3ccccc32)c1 [PHA-530687]
4 µg/mL (≈ 9.43 µM) | – | O=C(Nc1ccc(Br)cc1C(=O)O)c1cccc(CCc2ccccc2)c1 [PHA-530989]
0.25 µg/mL (≈ 0.649 µM) | – | N#Cc1ccc(NC(=O)c2cccc(C(=NO)c3ccccc3)c2)c(C(=O)O)c1 [PHA-535548]
0.25 µg/mL (≈ 0.626 µM) | – | CON=C(c1ccccc1)c1cccc(C(=O)Nc2ccc(C#N)cc2C(=O)O)c1 [PHA-535549]
1 µg/mL (≈ 2.79 µM) | – | N#Cc1ccc(NC(=O)c2cccc(Oc3ccccc3)c2)c(C(=O)O)c1 [PHA-535553]
0.125 µg/mL (≈ 0.263 µM) | – | COc1ccc2c(ccn2S(=O)(=O)c2cccc(C(=O)Nc3ccc(C#N)cc3C(=O)O)c2)c1 [PHA-543139]
1 µg/mL (≈ 2.5 µM) | – | N#Cc1ccc(NC(=O)c2cccc(S(=O)(=O)N3CCCC3)c2)c(C(=O)O)c1 [PHA-543140]
0.125 µg/mL (≈ 0.281 µM) | – | N#Cc1ccc(NC(=O)c2cccc(S(=O)(=O)n3ccc4ccccc43)c2)c(C(=O)O)c1 [PHA-543141]
0.125 µg/mL (≈ 0.26 µM) | – | N#Cc1ccc(NC(=O)c2cccc(S(=O)(=O)n3ccc4cc(Cl)ccc43)c2)c(C(=O)O)c1 [PHA-543681]
0.5 µg/mL (≈ 1.36 µM) | – | N#Cc1ccc(NC(=O)c2cccc(SC3CCCC3)c2)c(C(=O)O)c1 [PHA-546926]
0.125 µg/mL (≈ 0.311 µM) | – | CC(Sc1cccc(C(=O)Nc2ccc(C#N)cc2C(=O)O)c1)c1ccccc1 (centres unmarked) [PHA-547267]
1 µg/mL (≈ 2.12 µM) | – | Cc1ccc(NC(=O)c2cccc(S(=O)(=O)N3CCc4cc(Cl)ccc43)c2)c(C(=O)O)c1 [PHA-552831]
1 µg/mL (≈ 2.1 µM) | – | CC1(C)CN(S(=O)(=O)c2cccc(C(=O)Nc3ccc(C#N)cc3C(=O)O)c2)c2ccccc21 [PHA-555027]
1 µg/mL (≈ 2.17 µM) | – | Cc1cc(C(=O)Nc2ccc(C#N)cc2C(=O)O)cc(S(=O)(=O)N2CCc3ccccc32)c1 [PHA-556214]
2 µg/mL (≈ 3.71 µM) | – | O=C(Nc1ccc(-c2cccs2)cc1C(=O)O)c1cccc(S(=O)(=O)N2CCc3cc(Cl)ccc32)c1 [PHA-556657]
8 µg/mL (≈ 14.9 µM) | – | Cn1cccc1-c1ccc(NC(=O)c2cccc(S(=O)(=O)N3CCc4cc(Cl)ccc43)c2)c(C(=O)O)c1 [PHA-556658]
8 µg/mL (≈ 15 µM) | – | O=C(Nc1ccc(-c2cnccn2)cc1C(=O)O)c1cccc(S(=O)(=O)N2CCc3cc(Cl)ccc32)c1 [PHA-556661]
8 µg/mL (≈ 15.3 µM) | – | O=C(Nc1ccc(-c2ccco2)cc1C(=O)O)c1cccc(S(=O)(=O)N2CCc3cc(Cl)ccc32)c1 [PHA-556663]
4 µg/mL (≈ 7.5 µM) | – | O=C(Nc1ccc(-c2ccccc2)cc1C(=O)O)c1cccc(S(=O)(=O)N2CCc3cc(Cl)ccc32)c1 [PHA-557035]
1 µg/mL (≈ 2.79 µM) | – | N#Cc1ccc(NC(=O)c2ccc(Oc3ccccc3)cc2)c(C(=O)O)c1 [PHA-561055]

— patent US20050113450A1, “Antibacterial agents” (priority 2002, published 2005)
